{
  "source": "patent US4873240A",
  "about": "“Method for administering ethanolamine derivatives to livestock” (Beecham Group p.l.c., priority 1985, dated 1989)",
  "key": {"[1]": {"assay": "Weight gain and food conversion efficiency of broiler chicken, 30-56 days", "format": "in vivo, Marshall sexed broiler chicken", "conditions": "3 ppm in feed", "description": "Marshall sexed broiler chicken, 30 days old, were fed on a basal feed, which was designed as a practical broiler and finisher feed. Additive (see below) was substituted for maize in tis diet. The supplemented diets were fed until the birds were 56 days old."}, "[2]": {"assay": "Pup weight and rectal temperature after administration to pregnant rats", "format": "in vivo, Sprague-Dawley rats", "conditions": "days 2-20 of gestation, mean ± S.E.M.", "experimental": "Female Sprague-Dawley rates were mated, fed on powdered rodent diet and given compound P1 as a dietary admixture (150 ppm) from days 2-20 of gestation. Thereafter no further compound was given. Parturition occurred on day 22. The pups were weight 24 hours after birth. 48 hours after birth 7 pups were removed at random from 3 control and 3 treated litters, placed 29° C. and rectal temperature was monitored. Results are expressed as means of the number of values shown in parentheses±S.E.M."}, "[3]": {"assay": "Weight gain, food intake and body composition of genetically obese (ob/ob) mice dosed for 28 days", "format": "in vivo, female C57Bl/6 genetically obese (ob/ob) mice", "experimental": "(§1) Remale C57Bl/6 genetically obese (ob/ob) or normal lean mice were fed on a powdered breeders diet and given the compounds either once daily by oral gavage, or by admixture with the diet for 28 days. Fifty parts per million (ppm) in the diet is equivalent to a dose level of about eight to ten )obese mie) or twelve to thirteen (normal mice) milligrams per kilogram body weight per dya. Body lipid content and lean body mass were determined gravimetrically. There were seven or eight mice in each treatment group and results are expressed as a percentage of values for an untreated group of similar size."}, "[4]": {"assay": "Weight gain, food intake and body composition of normal lean mice dosed for 28 days", "format": "in vivo, female C57Bl/6 normal lean mice", "experimental": "as §1"}},
  "data": [
    {"smiles": "COC(=O)c1ccc(CC(C)NCC(O)c2ccccc2)cc1", "note": "(centres unmarked) [Preparation P1, N-[2-(4-carbomethoxyphenyl)-1-methylethyl]-2-hydroxy-2-phenylethanamine]", "values": [
      {"measurement": "Weight gain 30-56 days", "setting": "[1]; female, control 1309", "result": 1326, "unit": "g"},
      {"measurement": "Food conversion efficiency 30-56 days", "setting": "[1]; female, control .329", "result": ".333"},
      {"measurement": "Weight gain 30-56 days", "setting": "[1]; male, control 1644", "result": 1784, "unit": "g"},
      {"measurement": "Food conversion efficiency 30-56 days", "setting": "[1]; male, control .367", "result": ".385"},
      {"measurement": "Weight, All pups", "setting": "[2]; 150 ppm in diet of dams, 24 hours after birth, n=52, control 5.3 ± 0.1", "result": "5.9 ± 0.1", "unit": "g"},
      {"measurement": "Weight, Pups monitored for body temperature", "setting": "[2]; 150 ppm in diet of dams, n=7, control 5.0 ± 0.1", "result": "6.6 ± 0.4", "unit": "g"},
      {"measurement": "Drop in rectal temperature after 10 mins @ 29° C.", "setting": "[2]; pups 48 hours after birth, dams 150 ppm in diet, n=7, control 2.76 ± 0.16", "result": "1.98 ± 0.06"},
      {"measurement": "Rectal temperature after 10 mins @ 29° C.", "setting": "[2]; pups 48 hours after birth, dams 150 ppm in diet, n=7, control 29.4 ± 0.4", "result": "31.2 ± 0.5"},
      {"measurement": "Amt. of Lipid", "setting": "[3]; 50 ppm in diet", "result": "103 % of control values"},
      {"measurement": "Food Intake", "setting": "[3]; 50 ppm in diet", "result": "119 % of control values"},
      {"measurement": "Gain/Intake", "setting": "[3]; 50 ppm in diet", "result": "168 % of control values"},
      {"measurement": "Lean Body mass", "setting": "[3]; 50 ppm in diet", "result": "111 % of control values"},
      {"measurement": "Weight Gain", "setting": "[3]; 50 ppm in diet", "result": "200 % of control values"}
    ]},
    {"smiles": "COC(=O)c1ccc(CC(C)NCC(O)c2ccc(O)c(CO)c2)cc1", "note": "[Preparation P2, N-[2-(4-carbomethoxyphenyl)-L-methylethyl]-2-hydroxy-2-(4-hydroxy-3-hydroxymethylphenyl) ethanamine]", "values": [
      {"measurement": "Amt. of Lipid", "setting": "[4]; 75 ppm in diet", "result": "78 % of control values"},
      {"measurement": "Food Intake", "setting": "[4]; 75 ppm in diet", "result": "107 % of control values"},
      {"measurement": "Gain/Intake", "setting": "[4]; 75 ppm in diet", "result": "120 % of control values"},
      {"measurement": "Lean Body mass", "setting": "[4]; 75 ppm in diet", "result": "107 % of control values"},
      {"measurement": "Weight Gain", "setting": "[4]; 75 ppm in diet", "result": "128 % of control values"},
      {"measurement": "Amt. of Lipid", "setting": "[3]; 10 mg/kg po once daily", "result": "77 % of control values"},
      {"measurement": "Food Intake", "setting": "[3]; 10 mg/kg po once daily", "result": "111 % of control values"},
      {"measurement": "Gain/Intake", "setting": "[3]; 10 mg/kg po once daily", "result": "70 % of control values"},
      {"measurement": "Lean Body mass", "setting": "[3]; 10 mg/kg po once daily", "result": "113 % of control values"},
      {"measurement": "Weight Gain", "setting": "[3]; 10 mg/kg po once daily", "result": "78 % of control values"},
      {"measurement": "Amt. of Lipid", "setting": "[3]; 36 ppm in diet", "result": "101 % of control values"},
      {"measurement": "Food Intake", "setting": "[3]; 36 ppm in diet", "result": "112 % of control values"},
      {"measurement": "Gain/Intake", "setting": "[3]; 36 ppm in diet", "result": "99 % of control values"},
      {"measurement": "Lean Body mass", "setting": "[3]; 36 ppm in diet", "result": "112 % of control values"},
      {"measurement": "Weight Gain", "setting": "[3]; 36 ppm in diet", "result": "111 % of control values"}
    ]},
    {"smiles": "COC(=O)c1ccc(CC(C)NCC(O)c2ccc(O)c(CO)c2)cc1", "note": "(centres unmarked) [Preparation P3]", "values": [
      {"measurement": "Amt. of Lipid", "setting": "[4]; 20 mg/kg po once daily", "result": "69 % of control values"},
      {"measurement": "Gain/Intake", "setting": "[4]; 20 mg/kg po once daily", "result": "90 % of control values"},
      {"measurement": "Lean Body mass", "setting": "[4]; 20 mg/kg po once daily", "result": "113 % of control values"},
      {"measurement": "Weight Gain", "setting": "[4]; 20 mg/kg po once daily", "result": "171 % of control values"}
    ]},
    {"smiles": "COC(=O)COc1ccc(CC(C)NCC(O)c2cccc(Cl)c2)cc1", "note": "(centres unmarked) [Preparation P4, N-[2-(4-carbomethoxymethoxyphenyl)-1-methylethl]-2-hydroxy-2-(3-chlorophenyl)ethanamine]", "values": [
      {"measurement": "Amt. of Lipid", "setting": "[3]; 0.46 ppm in diet", "result": "105 % of control values"},
      {"measurement": "Food Intake", "setting": "[3]; 0.46 ppm in diet", "result": "116 % of control values"},
      {"measurement": "Gain/Intake", "setting": "[3]; 0.46 ppm in diet", "result": "124 % of control values"},
      {"measurement": "Lean Body mass", "setting": "[3]; 0.46 ppm in diet", "result": "107 % of control values"},
      {"measurement": "Weight Gain", "setting": "[3]; 0.46 ppm in diet", "result": "143 % of control values"}
    ]},
    {"smiles": "COC(=O)COc1ccc(CC(C)NCC(O)c2cc(Cl)c(N)c(Cl)c2)cc1", "note": "(centres unmarked) [Preparation P5, N-[2-(4-carbomethoxymethoxyphenyl)-1-methylethyl]-2-hydroxy-2-(4-amino-3,5-dichlorophenyl)ethanamine]", "values": [
      {"measurement": "Food Intake", "setting": "[4]; 50 ppm in diet", "result": "108 % of control values"},
      {"measurement": "Gain/Intake", "setting": "[4]; 50 ppm in diet", "result": "116 % of control values"},
      {"measurement": "Lean Body mass", "setting": "[4]; 50 ppm in diet", "result": "108 % of control values"},
      {"measurement": "Weight Gain", "setting": "[4]; 50 ppm in diet", "result": "125 % of control values"}
    ]}
  ]
}
